This passage reports inhibition, EC50 and inhibition in vivo results from US20240316045A1, “CYCLOPROPYLAMIDE COMPOUNDS AGAINST PARASITES IN FISH” (Intervet Inc., priority 2021, published 2024).

In experiment [1] the test system is Copepodids (juvenile sea lice stage of Lepeophtheirus salmonis). The experiment in a line: Juvenile sea lice contact assay. The conditions noted are these: read-out: Sea lice inhibition (% of dead+damaged copepodids). Here is the method:
Copepodids (juvenile sea lice stage of Lepeophtheirus salmonis) were exposed to seawater spiked with declining concentrations of a test compound (dissolved in a DMSO sea-water mixture). Sea lice inhibition (% of dead+damaged copepodids) was assessed after approximately 24 hours of continuous exposure. The vitality of used parasites was confirmed in a negative (solvent) control group.

Experiment [2] has as its system Mobile stages of sea lice (pre-adults, adults of Lepeophtheirus salmonis). The experiment in a line: Adult sea lice contact assay. The conditions noted are these: read-out: EC50 (sea lice inhibition, dead+damaged). Here is the method: Mobile stages of sea lice (i.e., pre-adults, adults of Lepeophtheirus salmonis) were exposed to seawater spiked with declining concentrations of a test compound (dissolved in a PEG sea-water mixture). Sea lice inhibition (% of dead+damaged sea lice) was assessed after approximately 1 and 24 hours of continuous exposure in comparison to a negative (solvent) control group.

Experiment [3] concerns Lepeophtheirus salmonis. Put plainly: Salmon in vivo efficacy trial against sea lice, gavage administration. Particulars: in Salmo salar. As to the method: Salmon (Salmo salar) were treated once orally by gavage at a dose of 5 mg/kg bodyweight per fish (Day 0). As formulation DMSO 5%/fish oil 95% was used. Salmon of the negative control group received only the excipients of the formulation.
The fish were infested with Lepeophtheirus salmonis copepodids twice before treatment (i.e., around day −28 and day −3) and once after treatment (i.e., day 17). […]
Efficacy is expressed as a % reduction of sea lice in treated groups versus a control group, using the Abbott's formula.

Where [4] appears, read: test concentration 10 nM, approx. 24 hours continuous exposure.
Setting [5] is: pre-adult/adult L. salmonis, assessed after approx. 1 and 24 hours, time of EC50 not stated.
Where [6] appears, read: 168 h, read-out: therapeutic efficacy against (pre-)adult sea lice (% reduction vs control, Abbott), single oral gavage 5 mg/kg, count at day 7, day -28 infestation.
[7] abbreviates: 672 h, read-out: therapeutic efficacy against juvenile sea lice (% reduction vs control, Abbott), single oral gavage 5 mg/kg, count around day 28, day -3 infestation.
Where [8] appears, read: test concentration 100 nM, approx. 24 hours continuous exposure.

Each structure is given as a SMILES string. pEC50: −log10 of the molar value. Where two headings read alike, the source gives them in different places.

Take `O=C(Nc1ccc(F)cc1)c1cc(NC(=O)C2C(c3cc(Cl)cc(Cl)c3)C2(Cl)Cl)ccc1F` (stereo not drawn) [Compound 1003]: the inhibition (usually how much of the control response was suppressed) at 0.1 µM in experiment [1] (24 h) is no less than 80%. The negative-log EC50 (pEC50) (in general, the EC50 on a negative log10 scale, so that one unit is a factor of ten) in experiment [2] is 7.60 to 9.00.

`O=C(Nc1c(F)cccc1F)c1cc(NC(=O)C2C(c3cc(Cl)cc(Cl)c3)C2(Cl)Cl)ccc1Cl` (stereo not drawn) [Compound 1007]: the inhibition at 0.01 µM in experiment [1] (setting [4]) came to 80%. The pEC50 in experiment [2] (setting [5]) was 7.60 to 9.00.

Take `O=C(Nc1ccncn1)c1cc(NC(=O)[C@H]2[C@H](c3cc(Cl)cc(Cl)c3)C2(Cl)Cl)ccc1Cl` [Compound 1039]: the inhibition in vivo at 5 mg/kg in experiment [3] (setting [6]) and in experiment [3] (setting [7]) was 80% in each case. Besides, the inhibition at 0.1 µM in experiment [1] (setting [8]) was found to be 100%. The pEC50 in experiment [2] (setting [5]) is 7.60 to 9.00.

In the case of `O=C(Nc1ccc(F)cc1F)c1cc(NC(=O)[C@H]2[C@H](c3ccc(F)c(Cl)c3)C2(Cl)Cl)ccc1Cl` [Compound 1087], the inhibition at 0.001 µM in experiment [1] (24 h) came to 100%. Moreover, the negative-log EC50 (pEC50) in experiment [2] is 7.60 to 9.00.

Take `O=C(Nc1ccc(F)cc1)c1cc(NC(=O)[C@H]2[C@H](c3cc(Cl)cc(Cl)c3)C2(Cl)Cl)ccc1F` [Compound 1090]: in experiment [1] (24 h), the inhibition at 0.001 µM was found to be 100%. Besides, in experiment [2], the negative-log EC50 (pEC50) is 8.00 to 9.00.

On to `O=C(Nc1ccccc1)c1cc(NC(=O)[C@H]2[C@H](c3cc(Cl)cc(Cl)c3)C2(Cl)Cl)ccc1Cl` [Compound 1099], for which the inhibition in vivo at 5 mg/kg worked out at 80% in experiment [3] (setting [6]) and 100% in experiment [3] (setting [7]). The inhibition at 0.01 µM in experiment [1] (setting [4]) came out at 100%. The pEC50 in experiment [2] (setting [5]) is 8.00 to 9.00.

On to `Cc1ccccc1NC(=O)c1cc(NC(=O)[C@H]2[C@H](c3cc(Cl)cc(Cl)c3)C2(Cl)Cl)ccc1Cl` [Compound 1100], for which the inhibition in vivo at 5 mg/kg in experiment [3] (setting [6]) and in experiment [3] (setting [7]) was 100% in each case. Moreover, the inhibition at 0.01 µM in experiment [1] (setting [4]) was determined as 100%. In experiment [2] (setting [5]), the pEC50 was 8.00 to 9.00.

Consider `Cc1ccc(NC(=O)[C@H]2[C@H](c3cc(Cl)cc(Cl)c3)C2(Cl)Cl)cc1C(=O)Nc1ccc(F)cc1` [Compound 1101], for which the inhibition at 0.1 µM in experiment [1] (setting [8]) stood at 100%. Moreover, the pEC50 in experiment [2] (setting [5]) was 8.00 to 9.00.

Regarding `Cc1c(F)cc(NC(=O)[C@H]2[C@H](c3cc(Cl)cc(Cl)c3)C2(Cl)Cl)cc1C(=O)Nc1ncc(F)cc1F` [Compound 1368], the inhibition in vivo at 5 mg/kg was 80% in experiment [3] (setting [6]) and 100% in experiment [3] (setting [7]). Moreover, the inhibition at 0.01 µM in experiment [1] (setting [4]) was 100%. In addition, the pEC50 in experiment [2] (setting [5]) was 8.00 to 9.00.

`O=C(Nc1c(F)cccc1F)c1cc(NC(=O)[C@H]2[C@H](c3cc(Cl)cc(Cl)c3)C2(Cl)Cl)ccc1Cl` [Compound 1370]: the inhibition in vivo at 5 mg/kg in experiment [3] (setting [6]) and in experiment [3] (setting [7]) was 100% each time. Moreover, the inhibition at 0.01 µM in experiment [1] (setting [4]) amounted to 100%. For the same molecule, the negative-log EC50 (pEC50) in experiment [2] (setting [5]) is 8.00 to 9.00.

Take `O=C(Nc1cncnc1)c1cc(NC(=O)[C@H]2[C@H](c3cc(Cl)cc(Cl)c3)C2(Cl)Cl)ccc1Cl` [Compound 1371]: the inhibition in vivo at 5 mg/kg in experiment [3] (setting [6]) and in experiment [3] (setting [7]) was 100% in each case. In addition, the inhibition at 0.01 µM in experiment [1] (setting [4]) is 100%. Besides, in experiment [2] (setting [5]), the negative logarithm of the EC50 (pEC50) was 8.00 to 9.00.

For `O=C(Nc1ncc(F)cc1F)c1cc(NC(=O)[C@H]2[C@H](c3cc(Cl)cc(Cl)c3)C2(Cl)Cl)ccc1F` [Compound 1376], the inhibition in vivo at 5 mg/kg in experiment [3] (setting [6]) and in experiment [3] (setting [7]) was 100% throughout. In addition, the inhibition at 10 pM in experiment [1] (test concentration 0.01 nM, approx. 24 hours continuous exposure) came to 100%. For the same molecule, the inhibition at 0.0001 µM in experiment [1] (test concentration 0.1 nM, approx. 24 hours continuous exposure) amounted to 100%. In experiment [2] (setting [5]), the pEC50 is no less than 9.00.

On to `O=C(Nc1ncc(F)cc1F)c1cc(NC(=O)[C@H]2[C@H](c3cc(Cl)cc(Cl)c3)C2(Cl)Cl)cc(F)c1Cl` [Compound 1378], for which the inhibition in vivo at 5 mg/kg in experiment [3] (setting [6]) and in experiment [3] (setting [7]) was 100% throughout. In addition, the inhibition at 0.01 µM in experiment [1] (setting [4]) was 100%. In addition, the pEC50 in experiment [2] (setting [5]) was 7.60 to 9.00.

As to `O=C(Nc1ncc(F)cc1F)c1cccc(NC(=O)[C@H]2[C@H](c3cc(Cl)cc(Cl)c3)C2(Cl)Cl)c1F` [Compound 1379], the inhibition at 0.1 µM in experiment [1] (setting [8]) was determined as 100%. For the same molecule, the negative logarithm of the EC50 (pEC50) in experiment [2] (setting [5]) is 7.60 to 9.00.

On to `O=C(Nc1ncc(F)cc1F)c1cc(NC(=O)C2C(c3cc(Cl)c(F)c(Cl)c3)C2(Cl)Cl)ccc1Cl` (stereo not drawn) [Compound 1383], for which, in experiment [1] (setting [4]), the inhibition at 0.01 µM came out at 100%. Moreover, the pEC50 in experiment [2] (setting [5]) was 8.00 to 9.00.

Consider `O=C(Nc1ncc(F)cc1F)c1cc(NC(=O)C2C(c3cc(C(F)(F)F)cc(C(F)(F)F)c3)C2(Cl)Cl)ccc1Cl` (stereo not drawn) [Compound 1385], for which, in experiment [1] (setting [4]), the inhibition at 0.01 µM is 100%. In addition, the negative logarithm of the EC50 (pEC50) in experiment [2] (setting [5]) is 8.00 to 9.00.

On to `O=C(Nc1ccc(F)cc1F)c1cc(NC(=O)C2C(c3cc(C(F)(F)F)cc(C(F)(F)F)c3)C2(Cl)Cl)ccc1F` (stereo not drawn) [Compound 1387], for which, in experiment [1] (setting [8]), the inhibition at 0.1 µM is 100%. In addition, in experiment [2] (setting [5]), the pEC50 was 8.00 to 9.00.

With `O=C(Nc1ncc(F)cc1F)c1cc(NC(=O)C2C(c3cc(C(F)(F)F)cc(C(F)(F)F)c3)C2(Cl)Cl)cc(F)c1F` (stereo not drawn) [Compound 1388], the inhibition at 0.1 µM in experiment [1] (setting [8]) was found to be 100%. The negative logarithm of the EC50 (pEC50) in experiment [2] (setting [5]) was 8.00 to 9.00.

For the molecule `O=C(Nc1ncc(F)cc1F)c1cc(NC(=O)C2C(c3cc(Cl)cc(C(F)(F)F)c3)C2(Cl)Cl)ccc1Cl` (stereo not drawn) [Compound 1389], the inhibition at 0.01 µM in experiment [1] (setting [4]) was found to be 100%. Besides, the pEC50 in experiment [2] (setting [5]) is no less than 9.00.

For the molecule `O=C(Nc1ncc(F)cc1F)c1cc(NC(=O)C2C(c3cc(Cl)cc(Cl)c3)C2(Cl)Cl)cc(F)c1F` (stereo not drawn) [Compound 1391], the inhibition at 0.01 µM in experiment [1] (setting [4]) is 80%. Besides, the pEC50 in experiment [2] (setting [5]) is 8.00 to 9.00.

In the case of `O=C(Nc1ncc(F)cc1F)c1cc(NC(=O)[C@H]2[C@H](c3cc(F)c(F)c(F)c3)C2(Cl)Cl)ccc1Cl` [Compound 1392], the inhibition in vivo at 5 mg/kg is 100% in experiment [3] (po, 168 h, read-out: therapeutic efficacy against (pre-)adult sea lice (% reduction vs control, Abbott)) and 80% in experiment [3] (po, 672 h, read-out: therapeutic efficacy against juvenile sea lice (% reduction vs control, Abbott)). In experiment [1] (24 h), the inhibition at 0.01 µM stood at 100%. Further, the negative-log EC50 (pEC50) in experiment [2] was no less than 9.00.

On to `O=C(Nc1ncc(F)cc1F)c1cc(NC(=O)[C@H]2[C@H](c3cc(F)c(F)c(F)c3)C2(Cl)Cl)ccc1F` [Compound 1393], for which the inhibition in vivo at 5 mg/kg was 100% in experiment [3] (setting [6]) and 80% in experiment [3] (setting [7]). Besides, in experiment [1] (setting [4]), the inhibition at 0.01 µM was found to be 100%. In experiment [2] (setting [5]), the negative-log EC50 (pEC50) is no less than 9.00.

Turning to `O=C(Nc1ncc(F)cc1F)c1c(F)ccc(NC(=O)[C@H]2[C@H](c3cc(Cl)cc(Cl)c3)C2(Cl)Cl)c1F` [Compound 1394], the inhibition in vivo at 5 mg/kg in experiment [3] (setting [6]) and in experiment [3] (setting [7]) was 100% each time. Besides, the inhibition at 0.1 µM in experiment [1] (setting [8]) was 100%. Besides, the negative logarithm of the EC50 (pEC50) in experiment [2] (setting [5]) is 8.00 to 9.00.
